Assay results: patent publication US8540766B2, “Biofilm formation inhibitor and treatment device thereof” (Kyushu University, National University Corporation, priority 2004, dated 2013)
“And” between values parts separate entries of the source, which are not always exact repeats. Equal values may be shown once.

Columns and labels:
[1] = test system: E. coli; assay: Sensitivity of E. coli to EGCg (dilution method, MIC); assay type: cell-based; conditions: E. coli 1×10^7 CFU/ml, 37 degrees Celsius, 24 hours, static
Procedure: Sensitivity of E. coli to EGCg was examined by a general sensibility test method (dilution method). E. coli suspensions (1×10^7 CFU/ml), in which gradually diluted (0.16, 0.31, 0.63, 1.25, 2.5, 5.0 mM) epigallocatechin gallate (EGCg) solutions were mixed, were placed in a culture plate and incubated at 37 degrees Celsius for 24 hours under a static condition. Minimal inhibitory concentration (MIC) was defined as the smallest EGCg concentration in which no bacteria growth is recognized macroscopically.

[2] = test system: E. coli in biofilm; assay: Effect of EGCg on living microbes after biofilm formation; assay type: cell-based; conditions: 24 hours biofilm, then 24 hours exposure; listed as epigallocatechin gallate (EGCg)
Procedure: Biofilms were formed on polyurethane surfaces after incubating 8 mm diameter polyurethane discs placed in a culture plate with an E. coli suspension (2×10^3 CFU/ml) under a static condition at 37 degrees Celsius for 24 hours. After adding solutions with various degrees of epigallocatechin gallate (EGCg) concentration (0-50 mM) to the biofilm surfaces that were formed, they were exposed for another 24 hours. After the polyurethane discs were taken out, and washed with a phosphate buffer solution gently, they were moved to a 2 ml phosphate buffer solution and sonicated to detach adhered E. coli. Viable E. coli cell count in this liquid was counted by the plate count method. […] These levels of concentration are much higher compared to the Example 1 where catechin was placed from the beginning of incubation.

[3] = test system: E. coli; assay: Inhibitory effect of EGCg on biofilm formation on polyurethane discs (static, plate count); assay type: cell-based; conditions: E. coli 2×10^3 CFU/ml, 37 degrees Celsius, 24 hours, listed as epigallocatechin gallate (EGCg)
Procedure: 8 mm diameter disc shaped polyurethanes were cultured with an E. coli suspension (2×10^3 CFU/ml) which was mixed with various concentrations of epigallocatechin gallate (EGCg) (0-0.2 mM) under a static condition at 37 degrees Celsius for 24 hours in a culture plate. After incubations, the polyurethane discs were taken out, and having been washed in a phosphate buffer gently, they were moved to a 2 ml phosphate buffer, where they were sonicated to detach the adhered E. coli. Viable E. coli cell counts in the liquid were calculated by the plate count method.

[4] = high dosage long-term oral administration; cited from earlier work
[5] = test system: E. coli; conditions: comparison among catechins; cited from earlier work

O=C(O[C@@H]1Cc2c(O)cc(O)cc2O[C@@H]1c1cc(O)c(O)c(O)c1)c1cc(O)c(O)c(O)c1 [EGCg, epigallocatechin gallate]
minimal inhibitory concentration (MIC) [1]: 0.63 mM and 287 μg/ml | concentration at which E. coli in biofilm were exterminated completely [2]: 50 mM and 23 mg/ml | concentration at which viable cell counts in formed biofilm decreased significantly [2]: ≥ 8 mM and ≥ 3.7 mg/ml | concentration at which biofilm formation is inhibited completely [3]: ≥ 0.15 mM and ≥ 0.069 mg/ml | concentration at which biofilm formation is inhibited significantly [3]: ≥ 0.12 mM and ≥ 0.055 mg/ml | side effects / safety to the human body [4]: no side effect has been reported | antibacterial action / minimal inhibitory concentration against E. coli, among the catechins [5]: smallest minimal inhibitory concentration against E. coli
